Read-outs that look alike come from different tables or passages of the source.
Tests used:
Type in all cases: cell-based
[1] = molecular target: protein kinases (human kinome) (Homo sapiens, UniProt Q16832)
[2] = molecular target: protein kinases (human kinome) (Homo sapiens, UniProt Q9BZX2); details: protein UCK2 (Q9BZX2-1); experiment wp160, 8 hr; down
[3] = molecular target: protein kinases (human kinome) (Homo sapiens, UniProt Q16760); details: protein DGKD (Q16760-1); experiment wp045; down
[4] = molecular target: T1, protein kinases (human kinome) (Homo sapiens, UniProt Q9H2K8); details: for logFC: TAOK3 (Q9H2K8); for logFC TAOK3 (Q9H2K8): direction of change down
T1 sequence (Q9H2K8 1-898): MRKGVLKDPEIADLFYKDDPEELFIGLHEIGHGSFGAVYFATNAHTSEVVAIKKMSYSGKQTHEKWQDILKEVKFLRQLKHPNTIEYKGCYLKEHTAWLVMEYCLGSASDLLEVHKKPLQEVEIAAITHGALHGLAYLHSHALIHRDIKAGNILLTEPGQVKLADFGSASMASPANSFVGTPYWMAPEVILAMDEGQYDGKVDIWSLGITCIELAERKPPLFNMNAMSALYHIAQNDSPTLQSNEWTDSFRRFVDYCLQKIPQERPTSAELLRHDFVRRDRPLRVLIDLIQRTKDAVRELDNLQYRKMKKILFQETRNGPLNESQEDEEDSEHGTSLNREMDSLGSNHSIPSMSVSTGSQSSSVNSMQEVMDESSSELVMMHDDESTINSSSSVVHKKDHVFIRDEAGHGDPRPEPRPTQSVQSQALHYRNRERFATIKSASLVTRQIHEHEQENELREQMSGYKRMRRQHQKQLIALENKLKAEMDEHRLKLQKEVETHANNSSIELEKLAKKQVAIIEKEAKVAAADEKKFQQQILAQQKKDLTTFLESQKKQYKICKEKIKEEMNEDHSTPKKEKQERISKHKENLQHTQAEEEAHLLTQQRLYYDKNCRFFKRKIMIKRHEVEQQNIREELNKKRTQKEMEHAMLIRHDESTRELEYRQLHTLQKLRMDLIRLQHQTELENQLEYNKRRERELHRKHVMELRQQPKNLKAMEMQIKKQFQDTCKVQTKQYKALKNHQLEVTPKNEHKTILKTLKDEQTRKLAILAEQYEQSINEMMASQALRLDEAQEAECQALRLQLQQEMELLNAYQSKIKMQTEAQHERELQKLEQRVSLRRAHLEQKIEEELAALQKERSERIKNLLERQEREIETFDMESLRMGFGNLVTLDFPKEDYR

[5] = molecular target: protein kinases (human kinome) (Homo sapiens, UniProt Q99640); details: experiment wp131
[6] = molecular target: protein kinases (human kinome) (Homo sapiens, UniProt Q15120); details: experiment wp160, 1 hr
[7] = molecular target: protein kinases (human kinome) (Homo sapiens, UniProt Q52WX2); details: for logFC: SBK1 (Q52WX2)
[8] = molecular target: protein kinases (human kinome) (Homo sapiens, UniProt Q96GD4); details: for logFC AURKB: AURKB Q96GD4
[9] = molecular target: protein kinases (human kinome) (Homo sapiens, UniProt Q8TCT0); details: protein CERK (Q8TCT0); experiment wp131; down
[10] = molecular target: protein kinases (human kinome) (Homo sapiens, UniProt Q8TF76); details: experiment wp137
[11] = molecular target: protein kinases (human kinome) (Homo sapiens, UniProt Q01415); details: protein GALK2 (Q01415-1); experiment wp056; down
[12] = molecular target: protein kinases (human kinome) (Homo sapiens, UniProt Q8TEA7); details: experiment wp056
protein kinases (human kinome) (Homo sapiens, UniProt Q8TEA7), sequence (Q8TEA7 whole entry): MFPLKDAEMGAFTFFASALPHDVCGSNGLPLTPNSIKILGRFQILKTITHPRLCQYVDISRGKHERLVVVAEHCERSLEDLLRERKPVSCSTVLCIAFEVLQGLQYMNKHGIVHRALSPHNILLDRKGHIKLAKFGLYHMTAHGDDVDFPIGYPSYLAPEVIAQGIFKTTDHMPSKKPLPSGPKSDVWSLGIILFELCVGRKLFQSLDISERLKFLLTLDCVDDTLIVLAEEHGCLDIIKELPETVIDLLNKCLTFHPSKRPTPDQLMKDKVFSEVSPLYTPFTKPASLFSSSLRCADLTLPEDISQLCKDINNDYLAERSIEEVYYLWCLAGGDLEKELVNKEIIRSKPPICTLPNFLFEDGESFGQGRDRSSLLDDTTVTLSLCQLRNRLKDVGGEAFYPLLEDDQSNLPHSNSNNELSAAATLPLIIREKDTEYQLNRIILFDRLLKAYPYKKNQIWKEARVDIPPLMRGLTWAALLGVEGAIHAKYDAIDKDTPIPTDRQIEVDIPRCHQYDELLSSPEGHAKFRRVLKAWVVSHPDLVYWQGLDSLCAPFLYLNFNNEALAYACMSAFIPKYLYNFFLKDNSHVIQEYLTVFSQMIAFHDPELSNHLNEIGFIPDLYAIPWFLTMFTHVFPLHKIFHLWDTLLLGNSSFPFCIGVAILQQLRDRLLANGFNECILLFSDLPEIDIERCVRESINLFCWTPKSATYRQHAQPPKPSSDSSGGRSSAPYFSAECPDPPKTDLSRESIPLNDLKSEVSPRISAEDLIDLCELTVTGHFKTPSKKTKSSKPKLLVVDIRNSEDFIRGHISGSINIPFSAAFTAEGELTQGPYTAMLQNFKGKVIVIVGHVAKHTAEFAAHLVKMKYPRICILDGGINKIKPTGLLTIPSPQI

protein kinases (human kinome) (Homo sapiens, UniProt Q52WX2), sequence (Q52WX2 whole entry): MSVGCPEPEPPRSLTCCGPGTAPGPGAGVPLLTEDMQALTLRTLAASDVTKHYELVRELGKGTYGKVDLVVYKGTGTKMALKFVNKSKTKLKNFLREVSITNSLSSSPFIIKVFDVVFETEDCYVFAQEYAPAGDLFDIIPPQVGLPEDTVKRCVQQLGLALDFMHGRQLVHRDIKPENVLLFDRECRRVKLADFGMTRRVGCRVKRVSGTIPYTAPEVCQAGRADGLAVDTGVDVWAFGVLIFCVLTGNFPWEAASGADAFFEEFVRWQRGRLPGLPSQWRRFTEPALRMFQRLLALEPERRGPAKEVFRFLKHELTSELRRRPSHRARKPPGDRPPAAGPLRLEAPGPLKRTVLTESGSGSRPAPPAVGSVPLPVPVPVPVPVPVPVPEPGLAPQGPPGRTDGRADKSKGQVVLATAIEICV
protein kinases (human kinome) (Homo sapiens, UniProt Q96GD4), sequence (Q96GD4 whole entry): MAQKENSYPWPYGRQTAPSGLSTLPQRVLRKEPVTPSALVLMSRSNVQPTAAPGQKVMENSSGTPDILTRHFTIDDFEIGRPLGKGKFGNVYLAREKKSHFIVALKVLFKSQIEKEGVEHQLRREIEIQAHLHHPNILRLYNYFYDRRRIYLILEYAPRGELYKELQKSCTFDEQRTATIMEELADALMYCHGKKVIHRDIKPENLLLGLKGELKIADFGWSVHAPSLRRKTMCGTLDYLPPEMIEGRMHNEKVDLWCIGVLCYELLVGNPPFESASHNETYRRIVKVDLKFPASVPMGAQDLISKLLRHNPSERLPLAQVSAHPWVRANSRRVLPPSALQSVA
protein kinases (human kinome) (Homo sapiens, UniProt Q99640), sequence (Q99640 whole entry): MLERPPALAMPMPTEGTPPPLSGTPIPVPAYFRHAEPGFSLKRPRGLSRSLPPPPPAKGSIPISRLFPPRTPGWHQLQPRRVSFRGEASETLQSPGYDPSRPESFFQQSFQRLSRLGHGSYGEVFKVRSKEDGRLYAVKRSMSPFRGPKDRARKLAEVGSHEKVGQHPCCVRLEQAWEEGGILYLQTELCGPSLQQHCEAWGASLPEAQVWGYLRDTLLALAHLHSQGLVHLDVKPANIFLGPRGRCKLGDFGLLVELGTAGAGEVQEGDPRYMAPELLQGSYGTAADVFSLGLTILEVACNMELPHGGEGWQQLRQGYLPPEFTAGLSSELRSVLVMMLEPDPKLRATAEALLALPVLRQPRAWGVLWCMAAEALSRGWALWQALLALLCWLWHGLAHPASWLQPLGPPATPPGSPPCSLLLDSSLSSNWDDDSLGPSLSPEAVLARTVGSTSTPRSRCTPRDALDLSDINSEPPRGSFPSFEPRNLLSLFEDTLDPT
protein kinases (human kinome) (Homo sapiens, UniProt Q16832), sequence (Q16832 22-855): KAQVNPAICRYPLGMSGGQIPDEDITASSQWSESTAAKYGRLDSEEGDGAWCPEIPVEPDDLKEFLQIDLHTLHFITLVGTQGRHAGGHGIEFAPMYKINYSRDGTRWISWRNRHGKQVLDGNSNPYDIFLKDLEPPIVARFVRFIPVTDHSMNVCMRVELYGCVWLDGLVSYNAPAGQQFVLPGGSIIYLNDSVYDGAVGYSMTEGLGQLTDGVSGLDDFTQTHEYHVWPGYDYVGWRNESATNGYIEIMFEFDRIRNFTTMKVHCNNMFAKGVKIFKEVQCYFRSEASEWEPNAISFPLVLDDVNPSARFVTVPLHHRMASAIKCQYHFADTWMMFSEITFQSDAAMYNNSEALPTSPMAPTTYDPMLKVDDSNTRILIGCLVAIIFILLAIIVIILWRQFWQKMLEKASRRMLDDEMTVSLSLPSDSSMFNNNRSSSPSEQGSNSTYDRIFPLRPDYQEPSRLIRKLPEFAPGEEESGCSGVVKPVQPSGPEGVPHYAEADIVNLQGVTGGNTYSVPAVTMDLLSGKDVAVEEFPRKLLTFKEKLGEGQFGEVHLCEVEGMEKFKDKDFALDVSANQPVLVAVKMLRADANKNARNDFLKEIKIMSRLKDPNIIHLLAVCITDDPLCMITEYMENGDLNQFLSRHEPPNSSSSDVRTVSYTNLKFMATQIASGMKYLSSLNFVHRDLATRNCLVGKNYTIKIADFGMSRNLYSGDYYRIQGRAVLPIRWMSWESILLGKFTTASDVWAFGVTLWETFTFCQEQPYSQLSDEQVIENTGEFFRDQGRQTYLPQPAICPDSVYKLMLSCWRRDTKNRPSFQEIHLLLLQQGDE
protein kinases (human kinome) (Homo sapiens, UniProt Q8TF76), sequence (Q8TF76 whole entry): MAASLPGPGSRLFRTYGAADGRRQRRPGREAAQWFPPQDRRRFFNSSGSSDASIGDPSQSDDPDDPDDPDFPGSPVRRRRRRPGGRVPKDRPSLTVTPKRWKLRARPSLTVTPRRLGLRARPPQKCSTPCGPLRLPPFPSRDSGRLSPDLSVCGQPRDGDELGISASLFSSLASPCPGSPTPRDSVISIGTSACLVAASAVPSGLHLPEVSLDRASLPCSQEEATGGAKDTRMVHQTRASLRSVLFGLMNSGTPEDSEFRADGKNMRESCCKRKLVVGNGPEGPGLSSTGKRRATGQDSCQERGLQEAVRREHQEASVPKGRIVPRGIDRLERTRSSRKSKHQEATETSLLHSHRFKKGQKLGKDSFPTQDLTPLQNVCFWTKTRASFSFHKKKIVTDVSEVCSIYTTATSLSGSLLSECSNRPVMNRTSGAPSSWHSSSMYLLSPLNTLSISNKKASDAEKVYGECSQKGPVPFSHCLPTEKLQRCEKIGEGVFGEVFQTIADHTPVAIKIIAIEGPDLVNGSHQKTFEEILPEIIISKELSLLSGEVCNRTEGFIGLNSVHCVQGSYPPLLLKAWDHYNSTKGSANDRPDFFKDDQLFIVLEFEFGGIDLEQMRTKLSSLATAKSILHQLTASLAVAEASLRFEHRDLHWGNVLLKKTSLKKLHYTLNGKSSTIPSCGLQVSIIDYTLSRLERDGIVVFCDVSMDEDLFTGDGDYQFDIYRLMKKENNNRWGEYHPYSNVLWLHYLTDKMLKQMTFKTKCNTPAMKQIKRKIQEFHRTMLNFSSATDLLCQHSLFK
protein kinases (human kinome) (Homo sapiens, UniProt Q15120), sequence (Q15120 whole entry): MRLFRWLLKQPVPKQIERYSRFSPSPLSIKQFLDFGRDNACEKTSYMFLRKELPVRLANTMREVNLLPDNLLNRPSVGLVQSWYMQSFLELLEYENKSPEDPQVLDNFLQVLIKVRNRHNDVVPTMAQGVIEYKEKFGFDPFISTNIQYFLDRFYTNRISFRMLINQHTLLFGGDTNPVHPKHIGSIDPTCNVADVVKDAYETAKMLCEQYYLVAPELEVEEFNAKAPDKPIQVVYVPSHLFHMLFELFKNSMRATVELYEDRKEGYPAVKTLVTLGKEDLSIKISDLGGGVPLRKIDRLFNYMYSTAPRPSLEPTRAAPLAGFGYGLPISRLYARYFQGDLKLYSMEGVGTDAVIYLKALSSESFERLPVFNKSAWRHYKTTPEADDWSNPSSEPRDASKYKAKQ
protein kinases (human kinome) (Homo sapiens, UniProt Q8TCT0), sequence (Q8TCT0 whole entry): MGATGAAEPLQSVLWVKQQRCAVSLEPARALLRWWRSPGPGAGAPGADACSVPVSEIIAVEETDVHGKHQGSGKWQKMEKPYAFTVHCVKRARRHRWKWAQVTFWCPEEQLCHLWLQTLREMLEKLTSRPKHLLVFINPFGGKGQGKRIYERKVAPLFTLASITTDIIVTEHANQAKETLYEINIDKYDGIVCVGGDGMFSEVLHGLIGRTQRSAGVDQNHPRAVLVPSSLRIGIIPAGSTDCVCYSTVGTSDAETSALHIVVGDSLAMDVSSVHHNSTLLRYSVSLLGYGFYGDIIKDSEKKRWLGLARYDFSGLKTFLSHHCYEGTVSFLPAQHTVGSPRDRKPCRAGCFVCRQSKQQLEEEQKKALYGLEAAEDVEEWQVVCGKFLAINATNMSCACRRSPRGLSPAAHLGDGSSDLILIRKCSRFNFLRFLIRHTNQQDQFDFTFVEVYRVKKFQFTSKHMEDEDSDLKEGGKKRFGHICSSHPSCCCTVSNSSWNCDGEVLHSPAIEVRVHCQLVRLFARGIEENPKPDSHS
protein kinases (human kinome) (Homo sapiens, UniProt Q9BZX2), sequence (Q9BZX2 whole entry): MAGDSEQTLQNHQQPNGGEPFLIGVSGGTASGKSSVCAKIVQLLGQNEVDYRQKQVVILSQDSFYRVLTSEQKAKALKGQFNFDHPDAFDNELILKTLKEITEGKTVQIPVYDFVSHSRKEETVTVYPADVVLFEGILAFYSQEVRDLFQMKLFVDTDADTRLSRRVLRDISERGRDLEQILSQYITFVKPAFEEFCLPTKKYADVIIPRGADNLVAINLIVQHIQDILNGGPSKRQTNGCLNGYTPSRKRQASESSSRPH

## Cc1ccc(NC(=O)c2cccc(C(F)(F)F)c2)cc1N1Cc2cnc(Nc3ccc(N4CCN(Cc5cn(CCCCCOc6cccc7c6C(=O)N(C6CCC(=O)NC6=O)C7=O)nn5)CC4)nc3)nc2N(C)C1=O (stereo not shown) [DB0646, N-(3-(7-((6-(4-((1-(5-((2-(2,6-Dioxopiperidin-3-yl)-1,3-dioxoisoindolin-4-yl)oxy)pentyl)-1H-1,2,3-triazol-4-yl)methyl)piperazin-1-v)pyridin-3-yl)amino)-1-methyl-2-oxo-1,4-dihydropyrimido[4,5-d]pyrimidin-3(2H)-yl)-4-methylphenyl)-3-(trifluoromethyl)benzamide]
[1]; Experiment wp105, direction of change down
  logFC DDR2 (Q16832): −0.4741
[1]; protein DDR2 (Q16832), experiment wp105, down
  logFC DDR2: −0.4741
[2]
  logFC UCK2: −0.3246

## Cc1ccc(NC(=O)c2cccc(C(F)(F)F)c2)cc1N1Cc2cnc(Nc3ccc(N4CCN(CCCCCCOc5cccc6c5C(=O)N(C5CCC(=O)NC5=O)C6=O)CC4)nc3)nc2N(C)C1=O (stereo not shown) [DB0663]
[3]
  logFC DGKD: −0.5955

## Cc1ccc(C(=O)Nc2ccc(CN3CCN(CCCOCCOCCOCCNC(=O)COc4cccc5c4C(=O)N(C4CCC(=O)NC4=O)C5=O)CC3)c(C(F)(F)F)c2)cc1C#Cc1cnc2cccnn12 (stereo not shown) [SB1.G.187]
[4]; experiment wp103
  logFC: −0.3727
  logFC TAOK3 (Q9H2K8): −0.3727
[4]; experiment wp107
  logFC: −0.3858
  logFC TAOK3 (Q9H2K8): −0.3858

## Cn1c(=O)c(-c2c(Cl)cccc2Cl)cc2cnc(Nc3ccc(OCCNC(=O)CCCCCCNC(=O)COc4cccc5c4C(=O)N(C4CCC(=O)NC4=O)C5=O)cc3)nc21 (stereo not shown) [SB1.G.192.1]
[5]; direction of change down
  logFC PKMYT1 (Q99640): −0.7301
[5]; protein PKMYT1 (Q99640), down
  logFC PKMYT1: −0.7301

## CC(C)S(=O)(=O)c1ccccc1Nc1nc(Nc2ccc(N3CCN(CCOCCNC(=O)CNc4cccc5c4C(=O)N(C4CCC(=O)NC4=O)C5=O)CC3)cc2)ncc1Cl (stereo not shown) [SK.3.91]
[6]
  logFC PDK3 (Q15120-1): −0.9801
  logFC of PDK3 (Q15120-1): −0.9801
[7]; Experiment wp107
  logFC of SBK1 (Q52WVX2): −0.921
[7]; experiment wp107
  logFC: −0.921
[7]; experiment wp133, 2 hr
  logFC: −0.6852
  logFC of SBK1 (Q52WX2): −0.6852
[7]; experiment wp133, 4 hr
  logFC: −0.9029
  logFC of SBK1 (Q52WX2): −0.9029
[8]; experiment wp160, 4 hr
  logFC AURKB: −0.4984
  logFC of AURKB (Q96GD4): −0.4984
[8]; experiment wp172
  logFC AURKB: −1.11
[8]; Experiment wp172
  logFC of AURKB (Q96GD4): −1.11

## CC(C)S(=O)(=O)c1ccccc1Nc1nc(Nc2ccc(N3CCN(CCOCCOCCNC(=O)CNc4cccc5c4C(=O)N(C4CCC(=O)NC4=O)C5=O)CC3)cc2)ncc1Cl (stereo not shown) [TL12.186]
[9]
  logFC CERK: −0.3343
[10]; direction of change down
  logFC HASPIN (Q8TF76-1): −0.368
[10]; protein HASPIN (QSTF76-1), down
  logFC HASPIN: −0.368

## C=CCn1c(=O)c2cnc(Nc3ccc(N4CCN(CCCNc5cccc6c5C(=O)N(C5CCC(=O)NC5=O)C6=O)CC4)cc3)nc2n1-c1cccc(C(C)(C)O)n1 (stereo not shown) [ZNL.02.096]
[11]
  logFC GALK2: −0.3724
[12]; direction of change down
  logFC TBCK (Q8TEA7): −0.3334
[12]; protein TBCK (QSTEA7), down
  logFC TBCK: −0.3334

— patent US20240269139A1, “COMPOUNDS FOR TARGETED PROTEIN DEGRADATION OF KINASES” (DANA-FARBER CANCER INSTITUTE, INC., priority 2020, published 2024)
